Results reported in the supplement of paper PMC10883282.

Legend:
Assay in all cases: relative viability vs DMSO control (72 h) (fraction); higher = more viable cells
[1] = system: SW872
How it was run: (§1)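 Serially diluted compound, 2.5 µl from source plates spanning 10 mM to 0.0002 mM, was added 24 h after sarcoma cell lines were seeded in 384-well plates at densities targeting 80–90% confluence. Plates then sat 72 h at 37 °C, 5% CO2, with 0.1% DMSO vehicle and a 5 µM positive control. Relative viability came from ATPLite as percent growth, averaged over up to triplicate wells, and was rescaled with 1 as full and 0 as none.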

[2] = system: SW684
How it was run: as §1

[3] = system: RD-ES
How it was run: as §1

[4] = system: HS729
How it was run: as §1

[5] = system: VA-ES-BJ
How it was run: as §1

[6] = system: KHOS-NP
How it was run: as §1

[7] = system: G401
How it was run: as §1

[8] = system: SK-ES-1
How it was run: as §1

[9] = system: HT1080
How it was run: as §1

[10] = system: A204
How it was run: as §1

[11] = system: SW982
How it was run: as §1

[12] = system: SK-LMS-1
How it was run: as §1

CO[C@H]1C[C@@H]2CC[C@@H](C)[C@@](O)(O2)C(=O)C(=O)N2CCCC[C@H]2C(=O)O[C@H]([C@H](C)C[C@@H]2CC[C@@H](OCCO)[C@H](OC)C2)CC(=O)[C@H](C)/C=C(\C)[C@@H](O)[C@@H](OC)C(=O)[C@H](C)C[C@H](C)/C=C/C=C/C=C/1C [Certican]
Conditions | relative viability
[1], 0.00017 µM | 0.922
[1], 0.00051 µM | 0.774
[1], 0.00152 µM | 0.6659
[1], 0.00457 µM | 0.645
[1], 0.01372 µM | 0.611
[1], 0.04115 µM | 0.592
[1], 0.1235 µM | 0.574
[1], 0.3704 µM | 0.561
[1], 1.111 µM | 0.567
[1], 3.333 µM | 0.584
[1], 10 µM | 0.584
[2], 0.00017 µM | 1.08
[2], 0.00051 µM | 1.125
[2], 0.00152 µM | 1.069
[2], 0.00457 µM | 1.03
[2], 0.01372 µM | 0.914
[2], 0.04115 µM | 0.829
[2], 0.1235 µM | 0.844
[2], 0.3704 µM | 0.813
[2], 1.111 µM | 0.83
[2], 3.333 µM | 0.872
[2], 10 µM | 0.807
[3], 0.00017 µM | 0.967
[3], 0.00051 µM | 0.939
[3], 0.00152 µM | 0.843
[3], 0.00457 µM | 0.807
[3], 0.01372 µM | 0.772
[3], 0.04115 µM | 0.728
[3], 0.1235 µM | 0.676
[3], 0.3704 µM | 0.658
[3], 1.111 µM | 0.598
[3], 3.333 µM | 0.552
[3], 10 µM | 0.488
[4], 0.00017 µM | 0.907
[4], 0.00051 µM | 0.943
[4], 0.00152 µM | 0.896
[4], 0.00457 µM | 0.835
[4], 0.01372 µM | 0.903
[4], 0.04115 µM | 0.829
[4], 0.1235 µM | 0.828
[4], 0.3704 µM | 0.808
[4], 1.111 µM | 0.821
[4], 3.333 µM | 0.828
[4], 10 µM | 0.891
[5], 0.00017 µM | 0.934
[5], 0.00051 µM | 0.855
[5], 0.00152 µM | 0.643
[5], 0.00457 µM | 0.604
[5], 0.01372 µM | 0.529
[5], 0.04115 µM | 0.494
[5], 0.1235 µM | 0.482
[5], 0.3704 µM | 0.478
[5], 1.111 µM | 0.468
[5], 3.333 µM | 0.47
[5], 10 µM | 0.46
[6], 0.00017 µM | 1.05
[6], 0.00051 µM | 1.07
[6], 0.00152 µM | 1.07
[6], 0.00457 µM | 1.05
[6], 0.01372 µM | 1.03
[6], 0.04115 µM | 1
[6], 0.1235 µM | 1.02
[6], 0.3704 µM | 1.04
[6], 1.111 µM | 1.03
[6], 3.333 µM | 1.02
[6], 10 µM | 0.824
[7], 0.00017 µM | 0.9112
[7], 0.00051 µM | 0.873
[7], 0.00152 µM | 0.846
[7], 0.00457 µM | 0.825
[7], 0.01372 µM | 0.784
[7], 0.04115 µM | 0.757
[7], 0.1235 µM | 0.729
[7], 0.3704 µM | 0.701
[7], 1.111 µM | 0.683
[7], 3.333 µM | 0.668
[7], 10 µM | 0.642
[8], 0.00017 µM | 1
[8], 0.00051 µM | 1.01
[8], 0.00152 µM | 0.983
[8], 0.00457 µM | 0.774
[8], 0.01372 µM | 0.694
[8], 0.04115 µM | 0.648
[8], 0.1235 µM | 0.592
[8], 0.3704 µM | 0.55
[8], 1.111 µM | 0.552
[8], 3.333 µM | 0.533
[8], 10 µM | 0.499
[9], 0.00017 µM | 1.04
[9], 0.00051 µM | 1.04
[9], 0.00152 µM | 1.09
[9], 0.00457 µM | 1.09
[9], 0.01372 µM | 1.08
[9], 0.04115 µM | 0.985
[9], 0.1235 µM | 0.998
[9], 0.3704 µM | 1.02
[9], 1.111 µM | 1.01
[9], 3.333 µM | 1.01
[9], 10 µM | 0.922
[10], 0.00017 µM | 0.919
[10], 0.00051 µM | 0.793
[10], 0.00152 µM | 0.657
[10], 0.00457 µM | 0.619
[10], 0.01372 µM | 0.591
[10], 0.04115 µM | 0.517
[10], 0.1235 µM | 0.498
[10], 0.3704 µM | 0.485
[10], 1.111 µM | 0.487
[10], 3.333 µM | 0.45
[10], 10 µM | 0.43
[11], 0.00017 µM | 1
[11], 0.00051 µM | 0.882
[11], 0.00152 µM | 0.79
[11], 0.00457 µM | 0.756
[11], 0.01372 µM | 0.728
[11], 0.04115 µM | 0.68
[11], 0.1235 µM | 0.679
[11], 0.3704 µM | 0.645
[11], 1.111 µM | 0.618
[11], 3.333 µM | 0.599
[11], 10 µM | 0.604
[12], 0.00017 µM | 1
[12], 0.00051 µM | 0.894
[12], 0.00152 µM | 0.759
[12], 0.00457 µM | 0.661
[12], 0.01372 µM | 0.631
[12], 0.04115 µM | 0.571
[12], 0.1235 µM | 0.549
[12], 0.3704 µM | 0.572
[12], 1.111 µM | 0.564
[12], 3.333 µM | 0.5489
[12], 10 µM | 0.512
